Measured values as given in patent US20230310388A1, “Methods and Compositions for Treating Fungal Infections” (Neoculi Pty Ltd, priority 2020, published 2023).
Where “and” joins values, the source holds several entries; their conditions need not be identical. Identical values can stand only once.

System: Candida albicans ATCC14053
Experiment: Broth micro-dilution screen at 16 μg/mL and MIC (Example 9)
Format: cell-based
Conditions: for Screen at 16 μg/mL: single concentration 16 μg/mL, Growth or No growth of C. albicans ATCC14053; for MIC: C. albicans ATCC14053, test range 0.25-64 μg/mL, duplicate
Protocol: The antifungal activity of 201 NCL analogs against Candida albicans ATCC14053 in vitro was investigated. A broth micro-dilution method was used, according to CLSI guidelines as described. NCL analogs were dissolved in DMSO and originally screened at a single concentration of 16 μg/mL.

Structure (SMILES)	Screen at 16 μg/mL	MIC
O=C(NN=Cc1ccc(Cl)cc1)NN=Cc1ccc(Cl)cc1 [NCL001]	Growth	–
O=C(NN=Cc1ccccc1Cl)NN=Cc1ccccc1Cl [NCL002]	Growth	–
COc1ccc(C=NNC(=O)NN=Cc2ccc(OC)cc2)cc1 [NCL006]	Growth	–
N#Cc1ccc(C=NNC(=O)NN=Cc2ccc(C#N)cc2)cc1 [NCL007]	Growth	–
COc1cccc(C=NNC(=O)NN=Cc2cccc(OC)c2)c1 [NCL010]	Growth	–
O=C(NN=Cc1cccc(C(F)(F)F)c1)NN=Cc1cccc(C(F)(F)F)c1 [NCL011]	Growth	–
O=C(NN=Cc1ccc(C(F)(F)F)cc1)NN=Cc1ccc(C(F)(F)F)cc1 [NCL012]	Growth	–
O=C(NN=Cc1ccccc1C(F)(F)F)NN=Cc1ccccc1C(F)(F)F [NCL013]	Growth	–
Cl.N=C(N)NN=Cc1ccccc1Cl [NCL015]	Growth	–
Cl.N=C(N)NN=Cc1ccccc1F [NCL016]	Growth	–
Cl.N=C(N)NN=Cc1cccc(F)c1 [NCL017]	Growth	–
Cc1ccccc1C=NNC(=O)NN=Cc1ccccc1C [NCL018]	Growth	–
Cc1cccc(C=NNC(=O)NN=Cc2cccc(C)c2)c1 [NCL019]	Growth	–
Cl.N=C(NN=Cc1ccc(F)cc1)NN=Cc1ccc(F)cc1 [NCL021]	No growth	0.5 mg/L and 1 mg/L
Cl.N=C(NN=Cc1ccccc1F)NN=Cc1ccccc1F [NCL022]	Growth	–
Cl.N#Cc1cccc(C=NNC(=N)NN=Cc2cccc(C#N)c2)c1 [NCL026]	Growth	–
COc1ccc(C=NNC(=N)NN=Cc2ccc(OC)cc2)cc1.Cl [NCL027]	No growth	8 mg/L and 16 mg/L
COc1ccccc1C=NNC(=N)NN=Cc1ccccc1OC.Cl [NCL028]	Growth	–
COc1cccc(C=NNC(=N)NN=Cc2cccc(OC)c2)c1.Cl [NCL029]	Growth	–
Cl.N=C(N)N/N=C/c1ccc(Cl)cc1 [NCL030]	Growth	–
Cl.N#Cc1ccc(C=NNC(=N)N)cc1 [NCL031]	Growth	–
Cl.N#Cc1cccc(C=NNC(=N)N)c1 [NCL033]	Growth	–

Structure (SMILES)	Screen at 16 μg/mL	MIC
Cl.N=C(NN=Cc1ccccc1C(F)(F)F)NN=Cc1ccccc1C(F)(F)F [NCL036]	Growth	–
Cl.N=C(NN=Cc1cccc(C(F)(F)F)c1)NN=Cc1cccc(C(F)(F)F)c1 [NCL037]	Growth	–
Cc1ccc(C=NNC(=N)NN=Cc2ccc(C)cc2)cc1.Cl [NCL038]	No growth	2 mg/L and 4 mg/L
Cc1ccccc1/C=N/NC(=N)N/N=C/c1ccccc1C.Cl [NCL039]	No growth	4 mg/L and 8 mg/L
Cc1cccc(C=NNC(=N)NN=Cc2cccc(C)c2)c1.Cl [NCL040]	No growth	8 mg/L and 16 mg/L
Cl.N=C(N)N/N=C/c1ccc(C(F)(F)F)cc1 [NCL041]	Growth	–
Cl.N=C(N)NN=Cc1ccccc1C(F)(F)F [NCL042]	Growth	–
Cl.N=C(N)NN=Cc1cccc(C(F)(F)F)c1 [NCL043]	Growth	–
Cc1ccc(/C=N/NC(=N)N)cc1.Cl [NCL044]	Growth	–
Cc1ccccc1C=NNC(=N)N.Cl [NCL045]	Growth	–
Cc1cccc(C=NNC(=N)N)c1.Cl [NCL046]	Growth	–
Cl.N=C(N)NN=Cc1cccc(Cl)c1 [NCL052]	Growth	–
Cl.N=C(N)NN=Cc1ccc(F)cc1 [NCL053]	Growth	–
Cl.N=C(NN=Cc1cccc(Cl)c1)NN=Cc1cccc(Cl)c1 [NCL054]	No growth	4 mg/L and 8 mg/L
CC(=NNC(=N)NN=C(C)c1ccc(C(F)(F)F)cc1)c1ccc(C(F)(F)F)cc1.Cl [NCL061]	Growth	–
Cl.N=C(NN=Cc1ccc2ccccc2c1)NN=Cc1ccc2ccccc2c1 [NCL093]	Growth	–
Cl.N=C(NN=Cc1ccoc1)NN=Cc1ccoc1 [NCL095]	Growth	–
Cl.N=C(NN=CC=Cc1ccccc1)NN=CC=Cc1ccccc1 [NCL096]	Growth	–
Cl.N=C(NN=Cc1cccc(C(=O)O)c1)NN=Cc1cccc(C(=O)O)c1 [NCL098]	Growth	–
CC(C)(C)c1ccc(/C=N/NC(=N)N/N=C/c2ccc(C(C)(C)C)cc2)cc1.Cl [NCL099]	Growth	–
Cl.N=C(NN=Cc1ccccc1)NN=Cc1ccccc1 [NCL100]	Growth	–
Cl.N=C(NN=Cc1cccc(O)c1O)NN=Cc1cccc(O)c1O [NCL101]	No growth	–

Structure (SMILES)	Screen at 16 μg/mL	MIC
Cl.N=C(NN=Cc1ccccc1[N+](=O)[O-])NN=Cc1ccccc1[N+](=O)[O-] [NCL102]	Growth	–
Cl.N=C(NN=Cc1cc(O)c(O)cc1O)NN=Cc1cc(O)c(O)cc1O [NCL104]	Growth	–
Cl.N=C(NN=Cc1ccc(O)c(O)c1O)NN=Cc1ccc(O)c(O)c1O [NCL105]	No growth	2 mg/L and 4 mg/L
COc1cc(C=NNC(=N)NN=Cc2cc(O)c(O)c(OC)c2)cc(O)c1O.Cl [NCL106]	Growth	–
Cl.N=C(NN=Cc1ccccc1O)NN=Cc1ccccc1O [NCL107]	No growth	2 mg/L and 4 mg/L
Cl.N=C(NN=Cc1cccc(O)c1)NN=Cc1cccc(O)c1 [NCL108]	Growth	–
Cl.N=C(NN=Cc1cccc([N+](=O)[O-])c1)NN=Cc1cccc([N+](=O)[O-])c1 [NCL109]	Growth	–
N=C(N/N=C/c1ccc(-c2ccccc2)cc1)N/N=C/c1ccc(-c2ccccc2)cc1 [NCL112]	Growth	–
Cl.N=C(NN=Cc1ccccc1-c1ccccc1)NN=Cc1ccccc1-c1ccccc1 [NCL116]	Growth	–
COc1cc(C=NNC(=N)NN=Cc2ccc(O)c(OC)c2)ccc1O.Cl [NCL117]	Growth	–
Cl.N=C(NN=Cc1cc(F)ccc1F)NN=Cc1cc(F)ccc1F [NCL118]	Growth	–
CC(=O)Nc1ccc(C=NNC(=N)NN=Cc2ccc(NC(C)=O)cc2)cc1.Cl [NCL119]	Growth	–
CC(C)c1ccc(C=NNC(=N)NN=Cc2ccc(C(C)C)cc2)cc1.Cl [NCL120]	Growth	–
CCCc1ccc(C=NNC(=N)NN=Cc2ccc(CCC)cc2)cc1.Cl [NCL121]	No growth	4 mg/L and 8 mg/L
Cl.N=C(NN=Cc1ccc(O)c([N+](=O)[O-])c1)NN=Cc1ccc(O)c([N+](=O)[O-])c1 [NCL122]	Growth	–
Cl.N=C(NN=Cc1ccc(F)c(F)c1)NN=Cc1ccc(F)c(F)c1 [NCL123]	No growth	1 mg/L
Cl.N=C(NN=Cc1c(O)ccc2ccccc12)NN=Cc1c(O)ccc2ccccc12 [NCL124]	Growth	–
COc1ccc(C=NNC(=N)NN=Cc2ccc(OC)c(O)c2)cc1O.Cl [NCL125]	Growth	–
C#Cc1cccc(C=NNC(=N)NN=Cc2cccc(C#C)c2)c1.Cl [NCL126]	No growth	4 mg/L
Cl.N=C(NN=Cc1ccc(Cl)cc1Cl)NN=Cc1ccc(Cl)cc1Cl [NCL127]	Growth	–
